Test [1] deals with T1, Histone-lysine N-methyltransferase NSD2 (Homo sapiens, UniProt O96028).
T1 sequence (O96028 whole entry): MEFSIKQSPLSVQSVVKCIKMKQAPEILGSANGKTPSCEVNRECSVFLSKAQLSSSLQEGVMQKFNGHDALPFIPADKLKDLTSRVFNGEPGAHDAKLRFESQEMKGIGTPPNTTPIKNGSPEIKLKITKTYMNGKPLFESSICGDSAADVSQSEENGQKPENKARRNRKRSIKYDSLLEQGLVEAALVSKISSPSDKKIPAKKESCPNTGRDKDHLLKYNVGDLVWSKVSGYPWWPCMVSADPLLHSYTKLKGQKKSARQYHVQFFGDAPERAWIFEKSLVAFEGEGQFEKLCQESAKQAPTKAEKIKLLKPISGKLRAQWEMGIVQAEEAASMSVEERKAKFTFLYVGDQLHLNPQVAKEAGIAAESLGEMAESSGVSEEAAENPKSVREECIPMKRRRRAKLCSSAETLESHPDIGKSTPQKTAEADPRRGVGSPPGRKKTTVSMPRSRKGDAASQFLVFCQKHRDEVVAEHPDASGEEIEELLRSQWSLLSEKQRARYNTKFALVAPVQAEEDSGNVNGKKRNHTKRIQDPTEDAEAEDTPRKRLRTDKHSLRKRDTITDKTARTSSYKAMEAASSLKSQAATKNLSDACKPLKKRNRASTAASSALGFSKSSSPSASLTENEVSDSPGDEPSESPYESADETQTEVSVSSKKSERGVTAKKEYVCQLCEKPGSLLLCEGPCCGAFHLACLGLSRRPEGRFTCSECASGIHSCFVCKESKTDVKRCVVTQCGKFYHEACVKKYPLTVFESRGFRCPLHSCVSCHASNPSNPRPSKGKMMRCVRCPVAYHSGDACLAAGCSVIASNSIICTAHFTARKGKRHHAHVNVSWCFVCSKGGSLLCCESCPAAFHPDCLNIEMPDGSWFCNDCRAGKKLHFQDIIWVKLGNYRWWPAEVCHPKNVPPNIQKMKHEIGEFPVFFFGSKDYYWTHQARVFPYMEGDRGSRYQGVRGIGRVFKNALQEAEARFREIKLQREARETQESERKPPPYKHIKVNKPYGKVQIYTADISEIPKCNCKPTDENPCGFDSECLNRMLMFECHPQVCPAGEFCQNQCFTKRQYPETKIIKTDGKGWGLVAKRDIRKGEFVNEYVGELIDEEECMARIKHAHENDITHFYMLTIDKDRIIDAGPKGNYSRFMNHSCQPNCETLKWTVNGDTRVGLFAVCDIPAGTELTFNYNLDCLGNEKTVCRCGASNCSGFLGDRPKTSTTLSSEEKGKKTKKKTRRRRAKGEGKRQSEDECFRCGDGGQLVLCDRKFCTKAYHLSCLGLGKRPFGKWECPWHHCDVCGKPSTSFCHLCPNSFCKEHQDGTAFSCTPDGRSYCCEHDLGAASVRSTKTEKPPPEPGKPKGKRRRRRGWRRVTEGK
Format: biochemical.

For test [2], the target named is Dual specificity mitogen-activated protein kinase kinase 1 (Homo sapiens, UniProt Q02750). Description: Navigating the Kinome. Panel member name: MAP2K1. In kind it is functional.
Test [3] has as its target 5'-AMP-activated protein kinase catalytic subunit alpha-1 (Homo sapiens, UniProt Q13131). In kind it is functional.
For test [4], the target named is Proto-oncogene tyrosine-protein kinase receptor Ret (Homo sapiens, UniProt P07949). Format: functional.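 Also: measured within a kinome-wide profiling panel, RET as the panel member.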
Proto-oncogene tyrosine-protein kinase receptor Ret, sequence (P07949 whole entry): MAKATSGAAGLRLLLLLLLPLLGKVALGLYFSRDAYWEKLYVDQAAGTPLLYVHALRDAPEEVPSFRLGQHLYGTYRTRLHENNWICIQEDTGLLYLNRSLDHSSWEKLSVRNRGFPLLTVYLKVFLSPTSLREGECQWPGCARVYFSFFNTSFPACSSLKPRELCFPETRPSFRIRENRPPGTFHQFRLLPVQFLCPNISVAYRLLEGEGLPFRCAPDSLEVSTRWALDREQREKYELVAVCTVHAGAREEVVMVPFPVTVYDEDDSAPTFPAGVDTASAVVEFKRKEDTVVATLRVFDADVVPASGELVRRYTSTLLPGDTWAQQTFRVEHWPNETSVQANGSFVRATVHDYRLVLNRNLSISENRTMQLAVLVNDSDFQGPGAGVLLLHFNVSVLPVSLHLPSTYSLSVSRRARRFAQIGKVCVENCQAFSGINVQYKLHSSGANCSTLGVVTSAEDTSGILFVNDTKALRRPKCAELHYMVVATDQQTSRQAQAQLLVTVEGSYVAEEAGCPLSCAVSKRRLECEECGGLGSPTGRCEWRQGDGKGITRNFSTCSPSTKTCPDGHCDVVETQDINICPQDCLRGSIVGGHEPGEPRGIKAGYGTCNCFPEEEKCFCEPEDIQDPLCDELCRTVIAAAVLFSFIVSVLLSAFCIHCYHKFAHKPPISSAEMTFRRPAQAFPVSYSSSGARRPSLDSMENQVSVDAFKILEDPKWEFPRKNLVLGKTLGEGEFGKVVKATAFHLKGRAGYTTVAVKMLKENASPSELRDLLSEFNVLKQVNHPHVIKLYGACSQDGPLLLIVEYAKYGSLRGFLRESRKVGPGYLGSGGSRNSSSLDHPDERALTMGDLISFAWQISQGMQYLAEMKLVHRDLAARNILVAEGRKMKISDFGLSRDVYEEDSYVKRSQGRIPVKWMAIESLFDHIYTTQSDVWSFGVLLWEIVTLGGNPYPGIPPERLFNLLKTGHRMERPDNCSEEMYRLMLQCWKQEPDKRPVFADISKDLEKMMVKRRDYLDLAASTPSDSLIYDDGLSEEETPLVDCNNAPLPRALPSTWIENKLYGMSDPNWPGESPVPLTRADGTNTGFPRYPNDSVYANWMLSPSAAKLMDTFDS
For test [5], the target named is Fibroblast growth factor receptor 1 (Homo sapiens, UniProt P11362). In kind it is functional.
Fibroblast growth factor receptor 1, sequence (P11362 whole entry): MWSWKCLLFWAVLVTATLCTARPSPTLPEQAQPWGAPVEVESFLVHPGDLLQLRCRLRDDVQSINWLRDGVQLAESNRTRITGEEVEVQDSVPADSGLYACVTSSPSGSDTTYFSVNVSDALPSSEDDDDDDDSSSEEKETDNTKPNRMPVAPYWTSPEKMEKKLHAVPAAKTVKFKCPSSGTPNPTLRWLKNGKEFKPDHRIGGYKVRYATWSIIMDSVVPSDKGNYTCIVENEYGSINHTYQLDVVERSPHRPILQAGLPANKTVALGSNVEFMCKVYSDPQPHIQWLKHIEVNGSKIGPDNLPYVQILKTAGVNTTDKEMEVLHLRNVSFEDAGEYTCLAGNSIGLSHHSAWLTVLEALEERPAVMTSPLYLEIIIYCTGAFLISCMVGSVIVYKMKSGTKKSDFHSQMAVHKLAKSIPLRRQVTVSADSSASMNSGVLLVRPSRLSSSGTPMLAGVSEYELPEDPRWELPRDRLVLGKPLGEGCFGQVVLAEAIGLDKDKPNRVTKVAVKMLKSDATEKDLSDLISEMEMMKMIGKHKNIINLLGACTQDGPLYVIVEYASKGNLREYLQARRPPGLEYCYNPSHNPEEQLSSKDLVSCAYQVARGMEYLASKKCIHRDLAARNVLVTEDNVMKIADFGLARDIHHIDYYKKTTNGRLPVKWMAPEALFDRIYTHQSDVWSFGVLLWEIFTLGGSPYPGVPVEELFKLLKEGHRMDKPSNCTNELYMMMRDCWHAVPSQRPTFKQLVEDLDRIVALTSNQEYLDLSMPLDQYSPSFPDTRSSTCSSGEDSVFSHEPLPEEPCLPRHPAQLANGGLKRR
Test [6] deals with Mitogen-activated protein kinase 9 (Homo sapiens, UniProt P45984). In kind it is functional.
Mitogen-activated protein kinase 9, sequence (P45984 whole entry): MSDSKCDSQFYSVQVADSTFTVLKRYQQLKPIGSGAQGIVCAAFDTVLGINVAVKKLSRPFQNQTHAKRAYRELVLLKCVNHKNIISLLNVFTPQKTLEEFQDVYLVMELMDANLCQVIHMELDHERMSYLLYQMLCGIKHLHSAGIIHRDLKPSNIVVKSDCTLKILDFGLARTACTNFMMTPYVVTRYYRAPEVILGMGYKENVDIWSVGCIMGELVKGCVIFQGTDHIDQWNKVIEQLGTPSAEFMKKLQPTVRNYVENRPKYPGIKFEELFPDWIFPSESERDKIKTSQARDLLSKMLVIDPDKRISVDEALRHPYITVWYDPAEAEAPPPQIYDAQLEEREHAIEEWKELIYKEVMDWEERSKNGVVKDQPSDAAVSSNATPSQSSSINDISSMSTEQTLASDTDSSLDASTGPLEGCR
For test [7], the target named is Glycogen synthase kinase-3 alpha (Homo sapiens, UniProt P49840). In kind it is functional.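 Also: GSK3A result taken from a broad kinome-wide kinase panel.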
Test [8] deals with Hepatocyte growth factor receptor (Homo sapiens, UniProt P08581). In kind it is functional.
The target of test [9] is Platelet-derived growth factor receptor beta (Homo sapiens, UniProt P09619). In kind it is functional.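 Also: value comes from a kinome panel, with PDGFRB tested as one panel member.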
The target in test [10] is Tyrosine-protein kinase ABL1 (Homo sapiens, UniProt P00519). Format: functional.
The target of test [11] is Vascular endothelial growth factor receptor 2 (Homo sapiens, UniProt P35968). Format: functional.
The target in test [12] is Leucine-rich repeat serine/threonine-protein kinase 2 (Homo sapiens, UniProt Q5S007). Format: functional.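 Also: value from a broad kinome-wide panel profiling study in which LRRK2 was one of the kinases tested.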
Leucine-rich repeat serine/threonine-protein kinase 2, sequence (Q5S007 whole entry): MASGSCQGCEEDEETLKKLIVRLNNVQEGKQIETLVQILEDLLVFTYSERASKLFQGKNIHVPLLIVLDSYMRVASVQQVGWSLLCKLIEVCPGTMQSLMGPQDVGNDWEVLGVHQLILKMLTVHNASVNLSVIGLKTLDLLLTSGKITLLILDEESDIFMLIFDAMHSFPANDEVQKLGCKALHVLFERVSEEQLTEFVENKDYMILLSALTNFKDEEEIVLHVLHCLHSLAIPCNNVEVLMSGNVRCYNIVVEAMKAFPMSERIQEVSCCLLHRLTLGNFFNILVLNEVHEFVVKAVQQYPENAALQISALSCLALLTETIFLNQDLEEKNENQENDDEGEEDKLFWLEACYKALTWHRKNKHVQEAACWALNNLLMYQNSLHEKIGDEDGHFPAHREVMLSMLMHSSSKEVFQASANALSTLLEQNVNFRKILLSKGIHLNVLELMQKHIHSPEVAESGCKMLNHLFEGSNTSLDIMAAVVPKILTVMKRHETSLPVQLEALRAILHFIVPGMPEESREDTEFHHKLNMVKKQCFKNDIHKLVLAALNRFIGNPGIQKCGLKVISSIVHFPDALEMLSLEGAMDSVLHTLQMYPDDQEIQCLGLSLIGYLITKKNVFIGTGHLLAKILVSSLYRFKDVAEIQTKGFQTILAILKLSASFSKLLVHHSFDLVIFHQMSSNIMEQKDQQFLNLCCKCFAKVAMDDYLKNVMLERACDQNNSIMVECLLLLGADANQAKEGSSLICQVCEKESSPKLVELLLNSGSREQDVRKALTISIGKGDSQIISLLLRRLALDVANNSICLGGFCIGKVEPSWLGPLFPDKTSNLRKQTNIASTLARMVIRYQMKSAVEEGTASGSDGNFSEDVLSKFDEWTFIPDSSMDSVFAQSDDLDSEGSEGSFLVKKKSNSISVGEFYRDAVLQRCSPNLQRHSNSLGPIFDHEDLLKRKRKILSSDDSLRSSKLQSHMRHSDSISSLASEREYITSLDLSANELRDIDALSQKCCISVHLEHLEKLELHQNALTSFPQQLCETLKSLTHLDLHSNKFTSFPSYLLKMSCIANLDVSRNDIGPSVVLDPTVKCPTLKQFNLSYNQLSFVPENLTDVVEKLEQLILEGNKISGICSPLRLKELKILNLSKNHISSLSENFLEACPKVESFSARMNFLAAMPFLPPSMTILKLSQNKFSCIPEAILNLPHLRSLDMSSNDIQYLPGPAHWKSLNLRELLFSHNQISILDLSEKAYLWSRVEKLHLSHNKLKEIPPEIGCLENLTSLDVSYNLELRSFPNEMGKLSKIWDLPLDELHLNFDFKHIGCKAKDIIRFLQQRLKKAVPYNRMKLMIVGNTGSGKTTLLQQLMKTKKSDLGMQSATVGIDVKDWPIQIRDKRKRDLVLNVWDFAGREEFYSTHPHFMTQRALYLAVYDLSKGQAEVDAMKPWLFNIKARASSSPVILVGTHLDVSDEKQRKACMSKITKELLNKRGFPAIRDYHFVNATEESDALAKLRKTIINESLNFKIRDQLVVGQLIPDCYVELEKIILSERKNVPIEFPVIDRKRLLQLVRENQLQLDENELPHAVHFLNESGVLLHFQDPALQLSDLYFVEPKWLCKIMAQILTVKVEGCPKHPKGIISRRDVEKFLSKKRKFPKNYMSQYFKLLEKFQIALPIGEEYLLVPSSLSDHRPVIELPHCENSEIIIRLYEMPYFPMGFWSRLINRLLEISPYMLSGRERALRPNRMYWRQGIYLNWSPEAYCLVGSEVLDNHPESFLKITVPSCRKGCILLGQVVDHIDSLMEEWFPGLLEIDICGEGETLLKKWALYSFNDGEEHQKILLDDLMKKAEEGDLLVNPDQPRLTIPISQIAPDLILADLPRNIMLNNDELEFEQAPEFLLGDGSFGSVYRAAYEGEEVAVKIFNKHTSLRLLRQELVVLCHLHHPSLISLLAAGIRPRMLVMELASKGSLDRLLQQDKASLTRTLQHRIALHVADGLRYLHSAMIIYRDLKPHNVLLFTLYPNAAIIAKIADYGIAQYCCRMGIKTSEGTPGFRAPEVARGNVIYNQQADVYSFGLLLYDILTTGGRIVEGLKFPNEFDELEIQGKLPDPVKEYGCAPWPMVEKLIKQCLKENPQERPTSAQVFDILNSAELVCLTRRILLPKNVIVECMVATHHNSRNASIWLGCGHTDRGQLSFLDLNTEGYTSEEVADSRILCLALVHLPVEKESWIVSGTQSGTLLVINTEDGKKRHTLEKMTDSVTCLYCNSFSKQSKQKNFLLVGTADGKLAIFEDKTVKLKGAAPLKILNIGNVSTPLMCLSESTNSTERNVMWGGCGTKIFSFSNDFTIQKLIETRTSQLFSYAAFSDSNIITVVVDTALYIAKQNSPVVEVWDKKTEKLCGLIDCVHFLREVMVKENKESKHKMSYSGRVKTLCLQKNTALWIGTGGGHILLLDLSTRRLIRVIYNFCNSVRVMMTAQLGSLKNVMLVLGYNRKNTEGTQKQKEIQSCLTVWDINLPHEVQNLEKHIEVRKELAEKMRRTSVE
Test [13] deals with BDNF/NT-3 growth factors receptor (Homo sapiens, UniProt Q16620). Format: functional.
Test [14] is described as follows: PKA-R1A complex activators, counter-screen titration – biochemical, Cy5-IP20 fluorescence polarization, 1536-well, triplicate, counter-screen for PKA-R2B activator project, dose response (AID 504896). On the technique in general: A counterscreen serves to expose hits that act by an unwanted route or on another target.
For test [15], the target named is Genome polyprotein (dengue virus type 2, UniProt P29990). The experiment in a line: flavivirus cap methylation enzyme inhibition – biochemical, confirmation dose response, primary screen (AID 588689). Format: functional.

One may read the AC50 as the concentration at which the activity in the assay is half-maximal. One may read the Ki as the dissociation constant of the complex between target and ligand, obtained from inhibition or displacement. As usually defined, the EC50 is the concentration at which the effect is half-maximal. One may read the IC50 as the concentration at which inhibition is half-maximal.

The source made the active and inactive calls.

Take `O=C(NNc1cc(N2CCCC2)nc(N2CCCC2)n1)c1ccc([N+](=O)[O-])cc1`: the AC50 in test [1] was 13.7 µM (active).

`O=C(Cc1cccs1)Nc1nc2ccccc2s1`: the Ki is 2 µM (active) in [2]; 1.58 µM (active) in test [3]; 3.16 µM (active) in test [4]; 0.631 µM (active) in test [5]; 3.16 µM (active) in [6]; > 3.98 µM (inactive) in test [7]. The Ki is 0.316 µM (active) in [8]; > 2 µM (inactive) in test [9]; > 2.51 µM (inactive) in test [10]; > 2.51 µM (inactive) in test [11]; 0.794 µM (active) in [12]; > 3.98 µM (inactive) in test [13].

As to `O=S(=O)(O)c1cccc2c(N=Nc3ccc(O)c4ncccc34)cccc12`, the EC50 in test [14] was > 114 µM (inactive). In addition, the IC50 in [15] is 34.8 µM (active). The AC50 in [1] is 7.57 µM (active).

Source of the values: ChEMBL document CHEMBL1201862, “PubChem BioAssay data set” (2004).
